From ChEMBL document CHEMBL2073943, “Effect of the flavonoids biochanin A and silymarin on the P-glycoprotein-mediated transport of digoxin and vinblastine in human intestinal Caco-2 cells” (Pharm Res, 2003)

Tests used:
Format in all cases: functional, cell-based
[1] = biological target: T1, ATP-dependent translocase ABCB1 (Homo sapiens, UniProt P08183); experiment: TP_TRANSPORTER: increase in […] intracellular accumulation (VBL: 27nM, biochanin A: 150 uM) in Caco-2 cells; settings: caco-2, 150 µM
[2] = biological target: T1, ATP-dependent translocase ABCB1; experiment: TP_TRANSPORTER: increase in digoxin intracellular accumulation (digoxin: 11nM, biochanin A: 150 uM) in Caco-2 cells; settings: caco-2, 150 µM
[3] = biological target: T1, ATP-dependent translocase ABCB1; experiment: TP_TRANSPORTER: increase in digoxin intracellular accumulation (digoxin: 11nM, silymarin: 100 uM) in Caco-2 cells; settings: caco-2, 100 µM
[4] = biological target: T1, ATP-dependent translocase ABCB1; experiment: TP_TRANSPORTER: increase in […] intracellular accumulation (VBL: 27nM, silymarin: 100 uM) in Caco-2 cells; settings: caco-2, 100 µM

T1 sequence (P08183 whole entry): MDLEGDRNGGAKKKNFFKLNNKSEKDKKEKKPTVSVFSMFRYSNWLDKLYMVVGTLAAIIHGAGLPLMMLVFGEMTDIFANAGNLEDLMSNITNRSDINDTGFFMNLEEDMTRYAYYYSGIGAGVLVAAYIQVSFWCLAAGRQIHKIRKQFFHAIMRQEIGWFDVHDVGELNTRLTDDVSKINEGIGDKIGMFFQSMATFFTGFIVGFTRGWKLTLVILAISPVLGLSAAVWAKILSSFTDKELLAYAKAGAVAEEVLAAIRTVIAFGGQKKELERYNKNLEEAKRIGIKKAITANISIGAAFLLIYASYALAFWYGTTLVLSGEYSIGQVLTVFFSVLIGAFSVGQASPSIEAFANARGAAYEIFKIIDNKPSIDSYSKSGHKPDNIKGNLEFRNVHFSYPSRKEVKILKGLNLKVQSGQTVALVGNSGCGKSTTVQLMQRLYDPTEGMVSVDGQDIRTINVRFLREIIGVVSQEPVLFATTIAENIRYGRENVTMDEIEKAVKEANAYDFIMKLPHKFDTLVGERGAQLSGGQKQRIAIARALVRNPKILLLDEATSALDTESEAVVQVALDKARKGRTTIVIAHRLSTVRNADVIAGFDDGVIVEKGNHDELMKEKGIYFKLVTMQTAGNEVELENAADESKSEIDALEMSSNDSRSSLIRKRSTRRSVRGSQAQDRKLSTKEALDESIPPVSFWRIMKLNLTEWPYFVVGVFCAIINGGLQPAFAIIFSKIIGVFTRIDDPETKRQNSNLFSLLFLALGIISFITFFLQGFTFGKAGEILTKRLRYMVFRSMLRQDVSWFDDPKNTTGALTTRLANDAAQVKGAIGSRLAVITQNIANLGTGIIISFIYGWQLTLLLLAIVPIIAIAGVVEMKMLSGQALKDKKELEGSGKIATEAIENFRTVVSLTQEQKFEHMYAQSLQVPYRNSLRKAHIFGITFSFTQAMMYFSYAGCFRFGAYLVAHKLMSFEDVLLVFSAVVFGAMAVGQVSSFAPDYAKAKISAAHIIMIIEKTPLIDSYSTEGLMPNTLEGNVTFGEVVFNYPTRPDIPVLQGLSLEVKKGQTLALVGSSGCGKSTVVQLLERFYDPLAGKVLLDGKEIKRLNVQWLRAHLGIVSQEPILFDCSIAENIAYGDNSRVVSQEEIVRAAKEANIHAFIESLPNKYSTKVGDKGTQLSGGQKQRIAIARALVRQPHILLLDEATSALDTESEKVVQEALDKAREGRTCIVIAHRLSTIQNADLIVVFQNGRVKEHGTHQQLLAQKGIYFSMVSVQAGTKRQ

Row | Molecule | Activity [1] | Activity [2] | Activity [3] | Activity [4]
1 | COc1ccc(-c2coc3cc(O)cc(O)c3c2=O)cc1 [BIOCHANIN] | inhibitor [+] | inhibitor [+] | – | –
2 | SILYMARIN | – | – | inhibitor [+] | inhibitor [+]
